Data published in patent US6630507B1, “Cannabinoids as antioxidants and neuroprotectants” (The United States of America as represented by the …, priority 1998, dated 2003).

Assays:
[1] = tested on: NMDA receptor; settings: cited from earlier work
[2] = tested on: cannabinoid receptor; settings: cited from earlier work
[3] = Cyclic voltametry (oxidation potentials); format: physicochemical; settings: for oxidation (electron donation) potential by cyclic voltametry: scan +0 to 1.8 V, 100 mV per second, acetonitrile; for oxidation profile by cyclic voltametry: data not shown
Protocol: To investigate whether cannabinoids protect neurons against glutamate damage by reacting with ROS, the antioxidant properties of cannabidiol and other cannabinoids were assessed. Cyclic voltametry, a procedure that measures the ability of a compound to accept or donate electrons under a variable voltage potential, was used to measure the oxidation potentials of several natural and synthetic cannabinoids. These studies were performed with an EG&G Princeton Applied Research potentiostat/galvanostat (Model 273/PAR 270 software, NJ). The working electrode was a glassy carbon disk with a platinum counter electrode and silver/silver chloride reference. Tetraethylammonium chloride in acetonitrile (0.1 M) was used as an electrolyte. Cyclic voltametry scans were done from +0 to 1.8 V at scan rate of 100 mV per second. […] Anandamide, a cannabinoid receptor ligand without a cannabinoid like structure, was used as a non-responsive control. Each experiment was repeated twice with essentially the same results.

[4] = tested on: neurons (AMPA/kainate receptor mediated toxicity); assay: AMPA and kainate receptor mediated toxicity in cultured neurons (LDH release); format: cell-based, Wistar rat; settings: for attenuation of glutamate toxicity, comparison of antioxidants: 100 μM glutamate, equimolar 5 μM antioxidant (FIG. 5B)
Protocol: (§1) Primary neuronal cultures were prepared according to the method of Ventra et al. (J. Neurochem. 66:1752-1761, 1996). Fetuses were extracted by Cesarian section from a 17 day pregnant Wistar rat, and the feral brains were placed into phosphate buffered saline. The cortices were then dissected out, cut into small pieces and incubated with papain for nine minutes at 37° C. After this time the tissue was dissociated by passage through a fire polished Pasteur pipette, and the resultant cell suspension separated by centrifugation over a gradient consisting of 10 mg/ml bovine serum albumin and 10 mg/ml ovomucoid (a trypsin inhibitor) in Earls buffered salt solution. The pellet was then re-suspended in high glucose, phenol red free Dulbeco's modified Eagles medium containing 10% fetal bovine serum, 2 mM glutamine, 100 IU penicillin, and 100 μg/ml streptomycin (DMEM). Cells were counted, tested for vitality using the trypan blue exclusion test and seeded onto poly-D-lysine coated 24 multiwell plates. After 96 hours, 10 μM fluoro-deoxyuridine and 10 μM uridine were added to block glial cell growth.
Astrocyte conditioned DMEM was used throughout the AMPA/kainate toxicity procedure and following glutamate exposure in the NMDAr mediated toxicity protocol. Media was conditioned by 24 hour treatment over a confluent layer of type I astrocytes, prepared from two day old Wistar rat pups. Cortices were dissected, cut into small pieces, and enzymatically digested with 0.25% trypsin. Tissue was then dissociated by passage through a fire polished Pasteur pipette and the cell suspension plated into untreated 75 cm^2 T-flasks. After 24 hours the media was replaced and unattached cells removed. Once astrocytes achieved confluence, cells were divided into four flasks. Media for experiments was conditioned by a 24 hour exposure to these astrocytes, after which time it was frozen at −20° C. until use. Astrocyte cultures were used to condition DMEM for no longer than two months.
To examine AMPA and kainate receptor mediated toxicity, neurons were cultured for 7-13 days, then exposed to 100 μM glutamate and 50 μM cyclothiazide (used to prevent AMPA receptor desensitization). […] Specific AMPA and kainate receptor ligands were also used to separately examine the effects of cannabinoids on AMPA and kainate receptor mediated events. Fluorowillardiine (1.5 μM) was the AMPA agonist and 4-methyl glutamate (10 μM) was the kainate agonist used to investigate receptor mediated toxicity. When specifically examining kainate receptor activity, cyclothiazide was replaced with 0.15 mg/ml Concanavalin-A.

[5] = Iron catalyzed dihydrorhodamine oxidation (Fenton reaction); settings: 50 μM dihydrorhodamine, 300 μM t-butyl hydroperoxide, 0.5 μM iron, 5 minutes
[6] = tested on: cultured neurons (NMDAr mediated toxicity); assay: NMDA mediated toxicity in cultured neurons (LDH release); format: cell-based, Wistar rat; settings: 0.5 μg/ml, administered both during and post ischemia (FIG. 8)
Protocol: as §1
To examine NMDAr mediated toxicity, cultured neurons (cultured for 14-18 days) were exposed to 250 μM glutamate for 10 minutes in a magnesium free saline solution. […]

[7] = J. Pharmacol. Sci. 60:1433-1457 (1971); cited from earlier work

**Q.** For CCCCCCC(C)(C)c1cc(O)c2c(c1)OC(C)(C)[C@@H]1CC=C(CO)CC21 (single isomer, unassigned; (-)) [HU-211], which “activity at the NMDA receptor” value [1] is on record?
**A.** Its value is “retains NMDA receptor antagonist neuroprotective activity”.

**Q.** What about the “affinity to the cannabinoid receptors” value [2] of the same compound?
**A.** Its value is “low affinity”.

**Q.** What about the “oxidation (electron donation) potential by cyclic voltametry” value [3] of the same compound?
**A.** Its value is “donated electrons at a similar potential as the antioxidant BHT”.

**Q.** With CCCCC/C=C\C/C=C\C/C=C\C/C=C\CCCC(=O)NCCO [Anandamide, arachidonyl ethanolamide] as the compound, how does the “oxidation (electron donation) potential by cyclic voltametry” value [3] read?
**A.** The value was “did not undergo oxidation”.

**Q.** What does the source list for Cc1cc(C(C)(C)C)c(O)c(C(C)(C)C)c1 [BHT]?
**A.** attenuation of glutamate toxicity, comparison of antioxidants [4]: attenuated glutamate toxicity; prevention of dihydrorhodamine oxidation [5]: prevented dihydrorhodamine oxidation

**Q.** Which “protection of cortical neurons from NMDAr toxicity” value [6] does the source give for CCCCC/C=C\C[C@H](O)/C=C/C=C\C/C=C\CCCC(=O)O [Compound 12-HETE, 12-(s)-hydroxy-eicosatetraenoic acid] here?
**A.** Its value is “best protection”.

**Q.** With CCCCCCC(C)(C)c1cc(O)c2c(c1)OC(C)(C)[C@@H]1CC=C(CO)C[C@@H]21 [HU-210, 1,1 dimethylheptyl (DMH) homolog of [3R,4R]-7-hydroxy-Δ^6THC] as the compound, how does the “side effects in subjects” value [7] read?
**A.** The value was “severe side effects, including fatigue, thirst, headache, and hypotension”.

**Q.** And the “cannabinomimetic activity relative to natural Δ^9 THC” value ([2]; U.S. Pat. No. 5,434,295)?
**A.** Its value is “two orders of magnitude greater”.

**Q.** Which “oxidation profile by cyclic voltametry” value [3] does the source give for CC(=O)Oc1cc(O[C@H](C)CCCc2ccccc2)cc2c1[C@@H]1C[C@H](O)CC[C@H]1[C@H](C)N2 [levanantrodol] here?
**A.** Its value is “oxidation profiles similar to cannabidiol and THC”.

**Q.** For CCCCCCC(C)(C)c1cc(O)c2c(c1)OC(C)(C)C1CCC(=O)CC21 (stereo not shown) [nabilone], which “oxidation profile by cyclic voltametry” value [3] is on record?
**A.** The value was “oxidation profiles similar to cannabidiol and THC”.

**Q.** Which “attenuation of glutamate toxicity, comparison of antioxidants” value [4] does the source give for Cc1c(C)c2c(c(C)c1O)CC[C@@](C)(CCC[C@H](C)CCC[C@H](C)CCCC(C)C)O2 [α-tocopherol] here?
**A.** The value was “attenuated glutamate toxicity”.

**Q.** What does the source list for tetrahydrocannabinol [THC]?
**A.** neuroprotection in presence of cannabinoid receptor antagonist SR-141716A ([4]; 5 μM compound plus SR-141716A (FIG. 2B)): Neither THC nor cannabidiol neuroprotection was affected; neuroprotection in AMPA/kainate receptor toxicity assays ([4]; 100 μM Glu, 5 μM compound (FIG. 2A)): similarly protective; oxidation (electron donation) potential by cyclic voltametry [3]: donated electrons at a similar potential as the antioxidant BHT; prevention of dihydrorhodamine oxidation [5]: prevented dihydrorhodamine oxidation
